Laboratory results taken from US9079866B2, “Flap modulators” (JANSSEN PHARMACEUTICA NV, priority 2013, dated 2015).
Counter-ions that a name gives are not always drawn. Like-named read-outs stand apart in the source and are kept apart here.

Key:
[1] = test system: leukotriene pathway in human whole blood (LTB4 levels); assay: Human whole blood assay (A23187-stimulated LTB4); format: cell-based; details: Homo sapiens, read-out: LTB4 IC50 1:1
Procedure, shortened: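 Blood (heparin) diluted 1:1 RPMI; compound pre-incubation 15 min, 37° Celsius; A23187 7 μg/mL, 30 min, 37° Celsius; plasma LTB4 by commercial kit. IC50 via 4-parameter equation.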

human FLAP = human FLAP (Homo sapiens (Human), UniProt P20292); assay: FLAP binding assay (HTRF format); details: HTRF format
Sequence of human FLAP (P20292 whole entry): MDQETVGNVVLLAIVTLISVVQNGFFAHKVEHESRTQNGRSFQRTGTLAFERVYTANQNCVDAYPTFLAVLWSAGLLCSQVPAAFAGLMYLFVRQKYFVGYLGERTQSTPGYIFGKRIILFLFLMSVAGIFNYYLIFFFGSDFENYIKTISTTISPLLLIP
Procedure, shortened: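 Samples were run in duplicate on each of two plates and the plate results averaged. Read-out is the HTRF signal ratio.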

[2] = human whole blood diluted 1:1 in RPMI, A23187-stimulated LTB4
[3] = human FLAP wild type, average of two plates, duplicates
[4] = human whole blood diluted 1:1, A23187-stimulated

| Structure (SMILES) | IC50 [1, 2] | Ki (human FLAP; [3]) | IC50 [1, 4] | Ki (human FLAP; wild type FLAP) |
| --- | --- | --- | --- | --- |
| N#CCCN1CCN(S(=O)(=O)c2ccccc2-c2ccc(-c3cnc(N)cn3)c(F)c2)CC1 [Example 174, 3-(4-{[4′-(5-Aminopyrazin-2-yl)-3′-fluorobiphenyl-2-yl]sulfonyl}piperazin-1-yl)propanenitrile] | 0.023 µM | 0.002 µM |  |  |
| N#Cc1ccc(Oc2ccccc2-c2ccc(-c3cnc(N)cn3)c(F)c2)nc1 [Example 626, 6-{[4′-(5-Aminopyrazin-2-yl)-3′-fluorobiphenyl-2-yl]oxy}pyridine-3-carbonitrile] |  |  | 0.0453 µM | 0.0062 µM |
| CC(C)CNS(=O)(=O)c1ccccc1-c1ccc(-c2ccc(N)nc2)c(F)c1 [Example 348, 4′-(6-Aminopyridin-3-yl)-3′-fluoro-N-iso-butyl-[1,1′-biphenyl]-2-sulfonamide] | 0.106 µM | 0.005 µM |  |  |
| Nc1cnc(-c2ccc(-c3ccccc3-c3cnccn3)cc2F)cn1 [Example 838, 5-(3-Fluoro-2′-(pyrazin-2-yl)-[1,1′-biphenyl]-4-yl)pyrazin-2-amine] |  |  | 0.35 µM | 0.0286 µM |
| Nc1cnc(-c2ccc(-c3ccccc3S(=O)(=O)N3CCC(F)(F)C3)cc2F)cn1 [Example 51, 5-{2′-[(3,3-Difluoropyrrolidin-1-yl)sulfonyl]-3-fluorobiphenyl-4-yl}pyrazin-2-amine] | 0.042 µM | 0.004 µM |  |  |
| O=S1(=O)CCN(S(=O)(=O)c2ccccc2-c2ccc(-c3cnc4c(c3)OCCN4)c(F)c2)CC1 [Example 392, 7-{2′-[(1,1-Dioxidothiomorpholin-4-yl)sulfonyl]-3-fluorobiphenyl-4-yl}-3,4-dihydro-2H-pyrido[3,2-b][1,4]oxazine] | 0.016 µM | 0.001 µM |  |  |
| C[C@H](NS(=O)(=O)c1ccccc1-c1ccc(-c2cnc(N)cn2)c(F)c1)C(O)c1ccccc1 (stereo in doubt) [Example 83, 4′-(5-Aminopyrazin-2-yl)-3′-fluoro-N-[(1S,2R)-2-hydroxy-1-methyl-2-phenylethyl]biphenyl-2-sulfonamide] | 0.019 µM | 0.001 µM |  |  |
| Nc1cnc(-c2ccc(-c3ccccc3C(F)(F)F)cc2F)cn1 [Example 472, 5-[3-Fluoro-2′-(trifluoromethyl)biphenyl-4-yl]pyrazin-2-amine] |  |  | 2.52 µM | 0.145 µM |
| N#Cc1cc(Oc2ccccc2-c2ccc(-c3cnc(N)cn3)c(F)c2)ccn1 [Example 537, 4-{[4′-(5-Aminopyrazin-2-yl)-3′-fluorobiphenyl-2-yl]oxy}pyridine-2-carbonitrile] |  |  | 0.042 µM | 0.003 µM |
| Nc1cc(Oc2cc(C(F)(F)F)ccc2-c2ccc(-c3cnc(N)nc3)c(F)c2)ncn1 [Example 561, 5-{2′-[(6-Aminopyrimidin-4-yl)oxy]-3-fluoro-4′-(trifluoromethyl)biphenyl-4-yl}pyrimidin-2-amine] |  |  | 0.043 µM | 0.004 µM |
| N#CCCN(C1CC1)S(=O)(=O)c1ccccc1-c1ccc(-c2cnc(N)nc2)c(F)c1 [Example 249, 4′-(2-Aminopyrimidin-5-yl)-N-(2-cyanoethyl)-N-cyclopropyl-3′-fluorobiphenyl-2-sulfonamide] | 0.094 µM | 0.059 µM |  |  |
| CSCc1ccccc1-c1ccc(-c2cnc(N)cn2)c(F)c1 [Example 235, 5-{3-Fluoro-2′-[(methylsulfanyl)methyl]biphenyl-4-yl}pyrazin-2-amine hydrochloride] | 0.285 µM | 0.036 µM |  |  |
| CC(C)(C)NS(=O)(=O)c1ccccc1-c1ccc(-c2cnc(N)c(Cl)c2)c(F)c1 [Example 451, 4′-(6-Amino-5-chloropyridin-3-yl)-N-tert-butyl-3′-fluorobiphenyl-2-sulfonamide trifluoroacetic acid salt] |  |  | 0.038 µM | 0.002 µM |
| Nc1cc(Oc2ccccc2-c2ccc(-c3cnc(N)nc3)c(F)c2)ncn1 [Example 536, 5-{2′-[(6-Aminopyrimidin-4-yl)oxy]-3-fluorobiphenyl-4-yl}pyrimidin-2-amine] |  |  | 0.068 µM | 0.021 µM |
| Nc1cnc(-c2ccc(-c3ccccc3S(=O)(=O)N3CCN(CCO)CC3)cc2F)cn1 [Example 59, 2-(4-{[4′-(5-Aminopyrazin-2-yl)-3′-fluorobiphenyl-2-yl]sulfonyl}piperazin-1-yl)ethanol] | 1.02 µM | 0.02 µM |  |  |
| CNS(=O)(=O)c1ccccc1-c1ccc(-c2cnc3[nH]ccc3c2)c(F)c1 [Example 426, 3′-Fluoro-N-methyl-4′-(1H-pyrrolo[2,3-b]pyridin-5-yl)biphenyl-2-sulfonamide] |  |  | 0.073 µM | 0.002 µM |
| CC(C)(C)Sc1ccccc1-c1ccc(-c2cnc(N)cn2)c(F)c1 [Example 190, 5-[2′-(tert-Butylsulfanyl)-3-fluorobiphenyl-4-yl]pyrazin-2-amine] | 0.471 µM | 0.058 µM |  |  |
| Nc1ncc(-c2ccc(-c3ccccc3S(=O)(=O)N[C@H]3CC[C@H](O)CC3)cc2F)cn1 [Example 262, 4′-(2-Aminopyrimidin-5-yl)-3′-fluoro-N-(trans-4-hydroxycyclohexyl)biphenyl-2-sulfonamide] | 0.046 µM | 0.018 µM |  |  |

| Structure (SMILES) | IC50 [1, 2] | Ki (human FLAP; [3]) | IC50 [1, 4] | Ki (human FLAP; wild type FLAP) |
| --- | --- | --- | --- | --- |
| CC(C)(C)NS(=O)(=O)c1ccccc1-c1ccc(-c2cnc(N)cn2)cc1F [Example 574, 4′-(5-Aminopyrazin-2-yl)-N-tert-butyl-2′-fluorobiphenyl-2-sulfonamide] |  |  | 0.494 µM | 0.015 µM |
| Nc1ncc(-c2ccc(-c3ccc(C(F)(F)F)cc3S(N)(=O)=O)cc2F)cn1 [Example 322, 4′-(2-Aminopyrimidin-5-yl)-3′-fluoro-4-(trifluoromethyl)biphenyl-2-sulfonamide] | 0.138 µM | 0.032 µM |  |  |
| CC(C)Oc1ncccc1-c1ccc(-c2cnc3[nH]ccc3n2)c(F)c1 [Example 399, 2-{2-Fluoro-4-[2-(1-methylethoxy)pyridin-3-yl]phenyl}-5H-pyrrolo[2,3-b]pyrazine] |  |  | 0.358 µM | 0.028 µM |
| CNS(=O)(=O)c1ccccc1-c1ccc(-c2cnc(N)nc2)c(F)c1F [Example 465, 4′-(2-Aminopyrimidin-5-yl)-2′,3′-difluoro-N-methylbiphenyl-2-sulfonamide trifluoroacetic acid salt] |  |  | 0.957 µM | 0.186 µM |
| Nc1cnc(-c2ccc(-c3ccccc3-c3cnc(N)cn3)cc2F)cn1 [Example 840, 5,5′-(3′-Fluorobiphenyl-2,4′-diyl)dipyrazin-2-amine] |  |  | 0.0996 µM | 0.0127 µM |
| Nc1ncc(-c2ccc(-c3ccccc3S(=O)(=O)N3CCCCCC3)cn2)cn1 [Example 681, 5-{5-[2-(Azepan-1-ylsulfonyl)phenyl]pyridin-2-yl}pyrimidin-2-amine trifluoroacetic acid salt] |  |  | 0.106 µM | 0.0522 µM |
| Nc1cnc(-c2ccc(-c3ccccc3S(=O)(=O)Nc3ccccc3)cc2F)cn1 [Example 26, 4′-(5-Aminopyrazin-2-yl)-3′-fluoro-N-phenylbiphenyl-2-sulfonamide] | 0.026 µM | 0.001 µM |  |  |
| Nc1ncc(-c2ccc(-c3ccccc3S(=O)(=O)N3CCCCC3)cc2F)cn1 [Example 301, 5-[3-Fluoro-2′-(piperidin-1-ylsulfonyl)biphenyl-4-yl]pyrimidin-2-amine trifluoroacetic acid salt] | 0.204 µM | 0.013 µM |  |  |
| Nc1cnc(Sc2ccccc2-c2ccc(-c3cnc(N)cn3)c(F)c2)nc1 [Example 219, 2-{[4′-(5-Aminopyrazin-2-yl)-3′-fluorobiphenyl-2-yl]sulfanyl}pyrimidin-5-amine hydrochloride] | 0.031 µM | 0.005 µM |  |  |
| Cc1nc(N)cc(Oc2ccccc2-c2ccc(-c3cnc(N)nc3)c(F)c2)n1 [Example 622, 5-{2′-[(6-Amino-2-methylpyrimidin-4-yl)oxy]-3-fluorobiphenyl-4-yl}pyrimidin-2-amine] |  |  | 0.34 µM | 0.0461 µM |
| N#Cc1cccnc1COc1ccccc1-c1ccc(-c2cnc(N)cn2)c(F)c1 [Example 531, 2-({[4′-(5-Aminopyrazin-2-yl)-3′-fluorobiphenyl-2-yl]oxy}methyl)pyridine-3-carbonitrile] |  |  | 0.323 µM | 0.008 µM |
| Nc1cnc(-c2ccc(-c3ccccc3S(=O)(=O)NC3CCNCC3)cc2F)cn1 [Example 123, 4′-(5-Aminopyrazin-2-yl)-3′-fluoro-N-piperidin-4-ylbiphenyl-2-sulfonamide] | 1.12 µM | 0.083 µM |  |  |
| Nc1cnc(-c2ccc(-c3cccnc3S(=O)(=O)C3CCCCC3)cc2F)cn1 [Example 808, 5-(4-(2-(Cyclohexylsulfonyl)pyridin-3-yl)-2-fluorophenyl)pyrazin-2-amine hydrochloride] |  |  | 0.00637 µM | 0.0004 µM |
| Nc1cnc(-c2ccc(-c3ccccc3S(=O)(=O)N3CCNC(=O)C3)cc2F)cn1 [Example 66, 4-{[4′-(5-Aminopyrazin-2-yl)-3′-fluorobiphenyl-2-yl]sulfonyl}piperazin-2-one] | 0.069 µM | 0.021 µM |  |  |
| CNS(=O)(=O)c1ccccc1-c1ccc(-c2ccc3[nH]cnc3c2)c(F)c1 [Example 423, 4′-(1H-Benzimidazol-5-yl)-3′-fluoro-N-methylbiphenyl-2-sulfonamide] |  |  | 4.79 µM | 0.284 µM |
| CS(=O)(=O)c1ccccc1-c1ccc(-c2cnc3c(c2)OCCN3)c(F)c1 [Example 385, 7-[3-Fluoro-2′-(methylsulfonyl)biphenyl-4-yl]-3,4-dihydro-2H-pyrido[3,2-b][1,4]oxazine] | 1.08 µM | 0.042 µM |  |  |
| CCN(CC)S(=O)(=O)c1ccccc1-c1ccc(-c2csc(N)n2)c(F)c1 [Example 578, 4′-(2-Amino-1,3-thiazol-4-yl)-N,N-diethyl-3′-fluorobiphenyl-2-sulfonamide] |  |  | 0.956 µM | 0.025 µM |
